Measured values published in the NIST ThermoML archive (doi:10.1016/j.fluid.2006.06.024).
± gives the expanded uncertainty stated by the source.

Assay: activity coefficient (dimensionless); of the first substance listed, at infinite dilution; xn = mol fraction of the nth substance listed
Conditions: Gas, Chromatography, x1 = 0

Row | activity coefficient (374 K) | activity coefficient (412.5 K) | activity coefficient (394.8 K) | activity coefficient (375.2 K) | activity coefficient (412.6 K) | Compound | activity coefficient (393.3 K)
1 | 7 ± 0.3 | 5.6 ± 0.3 | 6.1 ± 0.3 |  |  | C=CCC [1-butene] + CO | 
2 | 6.5 ± 0.3 | 5.4 ± 0.3 |  |  |  | C=C(C)C [2-methylpropene] + CO | 6 ± 0.3
3 |  |  | 6.6 ± 0.3 | 7.3 ± 0.3 | 6 ± 0.3 | C/C=C/C [(E)-2-butene] + CO | 

Row | Compound | activity coefficient (374 K) | activity coefficient (412.5 K) | activity coefficient (394.8 K) | activity coefficient (375.2 K) | activity coefficient (412.6 K) | activity coefficient (393.3 K)
4 | C=CC=C [1,3-butadiene] + CO | 5 ± 0.2 | 4.2 ± 0.2 |  |  |  | 4.7 ± 0.2
